The values below are quoted from earlier work in patent US6576633B1, “Stable liquid antimicrobial suspension compositions containing quarternaries prepared from hexamethylenetetramine and certain halohydrocarbons” (The Dow Chemical Company, priority 1996, dated 2003).

Each structure is given as a SMILES string.

The conditions of this data set: conventional 30 percent aqueous solution; within one month.

Take `ClC=CC[N+]12CN3CN(CN(C3)C1)C2.[Cl-]` (mixture of isomers) [cis/trans-compound, 1-(3-chloroallyl)-3,5,7-triaza-1-azoniaadamantane chloride]: the chemical degradation is around 30%.

On to `ClC=CC[N+]12CN3CN(CN(C3)C1)C2.[Cl-]` [cis-compound, 1-(3-chloroallyl)-3,5,7-triaza-1-azoniaadamantane chloride], for which the chemical degradation is listed as around 30%.
